Data as given in patent US20250154207A1, “PEPTIDES FOR DISSOLVING PROTEIN AGGREGATES AND METHODS THEREOF” (REJUKON BIOPHARM INC., priority 2022, published 2025).
Entries after “also recorded” stand apart in the source; their conditions may differ.

Legend:
[1] = test system: protein aggregates in eukaryotic cells; assay: depolymerization function in eukaryotic cells; type: cell-based; conditions: FIGS. 7-16
Text: The inventors then selected three peptides PLPR3 (SEQ ID NO: 6), ATXN8OS (SEQ ID NO: 7), and GRWD1 (SEQ ID NO: 8) to verify the depolymerization function in eukaryotic cells with the experimental scheme shown in FIG. 6.

[2] = previously identified, PCT/CN2021/111683; cited from earlier work
[3] = biological target: G3BP1 aggregates (Homo sapiens, UniProt Q13283); assay: in vitro dissolving of protein aggregates by purified peptides; type: biochemical
Chain of G3BP1 aggregates (Q13283 whole entry): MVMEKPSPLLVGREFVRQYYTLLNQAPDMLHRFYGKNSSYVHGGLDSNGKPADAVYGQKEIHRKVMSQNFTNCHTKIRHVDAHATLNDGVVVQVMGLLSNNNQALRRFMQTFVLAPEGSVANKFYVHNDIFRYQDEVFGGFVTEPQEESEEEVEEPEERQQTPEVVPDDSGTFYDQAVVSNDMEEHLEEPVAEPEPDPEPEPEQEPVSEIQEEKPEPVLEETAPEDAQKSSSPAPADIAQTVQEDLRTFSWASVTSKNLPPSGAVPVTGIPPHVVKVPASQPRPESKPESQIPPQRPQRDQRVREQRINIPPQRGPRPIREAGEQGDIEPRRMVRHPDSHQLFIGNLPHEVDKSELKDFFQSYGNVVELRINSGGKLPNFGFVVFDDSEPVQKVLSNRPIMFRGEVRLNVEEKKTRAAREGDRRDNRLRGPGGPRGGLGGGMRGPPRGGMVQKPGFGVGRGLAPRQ
Procedure: Given that the charged amino acid residues have the highest percentage in Champ-E, the inventors first tested the function of the charged amino acid residues in dissolving protein aggregates. The inventors generated a series variant of Champ-E with mutation of aspartic acid residues and tested their capability of dissolving protein aggregates in vitro and in cells. The variant peptides were expressed in E. coli and then purified (see FIG. 3). The purified variant peptides were then added to in vitro protein solution that is capable of forming protein aggregates.

Substance | depolymerization effect in eukaryotic cells [1] | also measured
ATXN8OS: SEQ ID NO: 7, PCPGAPCCSLVATGSRVPFSGLKEEEEEDGEDDEEEEEEG; fragment of human protein | have depolymerization effect | 
C19L2: SEQ ID NO: 10, LPDVNERIEQFSQEHSVKKKKKKDKHSKKAKKEKKKKSKK; few or no P/G | have depolymerization effect | 
CACNA1F: SEQ ID NO: 12, DMEEEEEEEEEEEEEEEEEGAGGVELLQEVVPKEKVVPIP; few or no polar residues | almost no depolymerization effect | 
CHD3(E2K): SEQ ID NO: 14, RKKKKKKTKRRKKGKGDGGQKQVKQKSSATLLLTWGLKDV; CHD3 with E mutated to K | still has certain depolymerization effect | 
CHD3: SEQ ID NO: 13, REKKEKKTKRRKKGEGDGGQKQVEQKSSATLLLTWGLEDV; mixture of positively and negatively charged residues | some depolymerization effect | 
Champ-E: SEQ ID NO: 1, MTEPQEESEEEVEEPEERQQTPEVVPDDSGTFYDQTVSNDLE; charged amphipathic peptide |  | capable of dissolving protein aggregation [2]: capable of dissolving protein aggregation
GRWD1: SEQ ID NO: 8, SNRLMMLRMHNLHGTKPPPSEGSDEEEEEEDEEDEEERKP; fragment of human protein | have depolymerization effect | 
PELP1: SEQ ID NO: 15, GGPPALEEDLTVININSSDEEEEEEEEEEEEEEEEEEEEE |  | dissolving G3BP1 protein aggregates ([3]; in vitro, FIG. 17): capable of dissolving G3BP1 protein aggregates
PLPR3: SEQ ID NO: 6, PMAEEEEEEEDEEEEEEEEEEEDEGPAPPSLYPTVQARPG; fragment of human protein | have depolymerization effect | 
ZNF326: SEQ ID NO: 11, DEPIEEEEDEDEEEEAEEVGEVEEVEEVEEVREGGIEGEG; few or no polar residues | almost no depolymerization effect | 
“Champ”-Q: SEQ ID NO: 5, TQPQQQSQQQVQQPQQRQQTPQVVPDDSGTFYDQTVSNDLQ; uncharged variant of Champ-E |  | capability of dissolving protein aggregates in vitro ([3]; purified peptide added to in vitro protein solution capable of forming protein aggregates, FIG. 4): could no longer dissolve protein aggregates; also recorded: no obvious depolymerization effect
